Experimental data reported in ChEMBL document CHEMBL1135750, “Phenoxyphenyl sulfone N-formylhydroxylamines (retrohydroxamates) as potent, selective, orally bioavailable matrix metalloproteinase inhibitors” (J Med Chem, 2002).

Assays:
[1] = AUC in monkey; assay type: ADME; parameters: concentration or dose not given beside the values; details: simiiformes, plasma
Interstitial collagenase = biological target: T1, Interstitial collagenase (Homo sapiens, UniProt P03956); assay: In vitro selective inhibition against matrix metalloprotease-1 (MMP-1) using a fluorimetric assay
T1 sequence (P03956 whole entry): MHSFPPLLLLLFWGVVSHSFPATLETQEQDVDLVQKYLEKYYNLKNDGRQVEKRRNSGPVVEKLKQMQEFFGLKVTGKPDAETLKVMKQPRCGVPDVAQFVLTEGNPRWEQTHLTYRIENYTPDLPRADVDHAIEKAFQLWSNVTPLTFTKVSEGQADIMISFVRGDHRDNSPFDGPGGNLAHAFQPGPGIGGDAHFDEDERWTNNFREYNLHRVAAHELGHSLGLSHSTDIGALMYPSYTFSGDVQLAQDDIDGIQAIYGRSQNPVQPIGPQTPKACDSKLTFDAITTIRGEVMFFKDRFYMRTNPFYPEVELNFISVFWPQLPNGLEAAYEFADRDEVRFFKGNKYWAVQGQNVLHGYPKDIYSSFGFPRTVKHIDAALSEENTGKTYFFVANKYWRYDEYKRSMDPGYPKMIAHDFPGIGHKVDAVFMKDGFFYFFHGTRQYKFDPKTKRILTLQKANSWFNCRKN

[2] = biological target: Matrix metalloproteinase-9 (Homo sapiens, UniProt P14780); assay: In vitro selective inhibition against Matrix metalloprotease-9 (MMP-9) using fluorimetric assay
[3] = biological target: 72 kDa type IV collagenase (Homo sapiens, UniProt P08253); assay: In vitro selective inhibition against matrix metalloprotease-2 (MMP-2) using fluorimetric assay
[4] = Half life measured as t1/2 in hours after iv administration in cynomolgus monkey; assay type: ADME, organism-based, Macaca fascicularis; details: in vivo

Matrix metalloproteinase-9, sequence (P14780 whole entry): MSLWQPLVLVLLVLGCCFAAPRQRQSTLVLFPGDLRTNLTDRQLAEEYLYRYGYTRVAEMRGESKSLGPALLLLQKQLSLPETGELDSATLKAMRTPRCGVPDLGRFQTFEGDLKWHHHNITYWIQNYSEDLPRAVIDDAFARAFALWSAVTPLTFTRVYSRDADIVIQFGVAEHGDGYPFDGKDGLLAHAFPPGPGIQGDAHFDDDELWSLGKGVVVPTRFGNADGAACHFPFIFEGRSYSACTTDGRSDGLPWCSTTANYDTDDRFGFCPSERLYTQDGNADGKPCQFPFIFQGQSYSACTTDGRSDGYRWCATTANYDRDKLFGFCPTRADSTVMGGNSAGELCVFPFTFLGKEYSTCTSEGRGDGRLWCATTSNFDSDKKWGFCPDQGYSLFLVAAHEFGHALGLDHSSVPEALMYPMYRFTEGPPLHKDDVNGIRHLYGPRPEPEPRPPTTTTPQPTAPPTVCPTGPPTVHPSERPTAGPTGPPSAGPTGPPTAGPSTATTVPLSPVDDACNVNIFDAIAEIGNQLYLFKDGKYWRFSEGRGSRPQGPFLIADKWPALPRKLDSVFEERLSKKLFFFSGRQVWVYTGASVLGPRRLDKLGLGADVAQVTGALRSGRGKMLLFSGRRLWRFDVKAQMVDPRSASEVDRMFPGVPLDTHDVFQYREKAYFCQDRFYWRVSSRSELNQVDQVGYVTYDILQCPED
72 kDa type IV collagenase, sequence (P08253 whole entry): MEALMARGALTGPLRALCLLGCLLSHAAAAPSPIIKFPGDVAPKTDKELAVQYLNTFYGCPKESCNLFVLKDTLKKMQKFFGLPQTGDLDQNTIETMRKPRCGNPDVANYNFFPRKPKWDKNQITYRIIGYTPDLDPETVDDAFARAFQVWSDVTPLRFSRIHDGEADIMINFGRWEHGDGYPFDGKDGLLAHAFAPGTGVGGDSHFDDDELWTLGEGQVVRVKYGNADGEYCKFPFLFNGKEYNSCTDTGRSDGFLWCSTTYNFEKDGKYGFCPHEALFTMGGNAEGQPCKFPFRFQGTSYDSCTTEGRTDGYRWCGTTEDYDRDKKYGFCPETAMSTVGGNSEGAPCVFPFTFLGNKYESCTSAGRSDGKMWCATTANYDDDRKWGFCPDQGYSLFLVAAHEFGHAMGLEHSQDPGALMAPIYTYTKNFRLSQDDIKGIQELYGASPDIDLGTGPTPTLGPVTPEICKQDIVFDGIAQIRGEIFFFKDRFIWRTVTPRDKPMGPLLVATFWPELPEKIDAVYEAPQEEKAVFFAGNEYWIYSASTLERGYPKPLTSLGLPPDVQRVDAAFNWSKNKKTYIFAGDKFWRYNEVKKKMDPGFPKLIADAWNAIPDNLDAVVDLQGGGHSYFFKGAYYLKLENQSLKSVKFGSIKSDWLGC

AUC [1] [µM·h] | IC50 (Interstitial collagenase) [µM] | IC50 [2] [nM] | IC50 [3] [nM] | half-life [4] [min] | Structure (SMILES)
5 | 0.082 | 0.34 | 0.86 | – | CC1(C)NC(=O)N(CC(CS(=O)(=O)c2ccc(-c3ccc(OC(F)(F)F)cc3)cc2)N(O)C=O)C1=O (centres undefined)
21 | > 50 | 1.1 | 1.9 | 1170 | C[C@@H]1OC(C)(C)OC1[C@@H](CS(=O)(=O)c1ccc(Oc2ccc(OC(F)(F)F)cc2)cc1)N(O)C=O (some centres undefined)
– | > 5 | 301 | 11 | – | O=C(C[C@H](CSc1ccccc1)C(=O)O)c1ccc(-c2ccc(Cl)cc2)cc1 [TANOMASTAT]
– | 2.5 | 1.8 | 1.4 | – | CN1C(=O)N(CC(CS(=O)(=O)c2ccc(Oc3ccc(C#N)cc3)cc2)N(O)C=O)C(=O)C1(C)C (centres undefined)
4 | – | 10 | 0.45 | 204 | CC1(C)NC(=O)N(CC(CS(=O)(=O)c2ccc(-c3ccc(C(F)(F)F)cc3)cc2)N(O)C=O)C1=O (centres undefined)
41 | > 50 | 0.79 | 0.33 | – | CS(=O)(=O)N1CCN(CCC(CS(=O)(=O)c2ccc(Oc3ccc(OC(F)(F)F)cc3)cc2)N(O)C=O)CC1 (centres undefined)
11 | 9.9 | 1.4 | 0.91 | – | Cn1ccc(=O)n(CC(CS(=O)(=O)c2ccc(Oc3ccc(OC(F)(F)F)cc3)cc2)N(O)C=O)c1=O (centres undefined)
13 | 0.28 | 1.4 | 0.72 | 702 | CN1C(=O)N(CC(CS(=O)(=O)c2ccc(Oc3ccc(Cl)cc3)cc2)N(O)C=O)C(=O)C1(C)C (centres undefined)
1 | 0.99 | 3.9 | 0.93 | – | CC1(C)NC(=O)N(CC(CS(=O)(=O)c2ccc(Oc3ccc(C#N)cc3)cc2)N(O)C=O)C1=O (centres undefined)
– | > 50 | 480 | 260 | – | CC1(C)OC[C@@H]([C@@H](CS(=O)(=O)c2ccc(Oc3ccc(OC(F)(F)F)cc3)cc2)N(O)C=O)O1 (stereo in doubt; 19x)
24 | 8 | 2 | 1.9 | – | CS(=O)(=O)N1CCC[C@H]1[C@@H](CS(=O)(=O)c1ccc(Oc2ccc(OC(F)(F)F)cc2)cc1)N(O)C=O
3 | > 50 | 0.092 | 0.36 | – | O=CN(O)C(CS(=O)(=O)c1ccc(Oc2ccc(OC(F)(F)F)cc2)cc1)[C@H](O)CO (some centres undefined)
16 | > 50 | 0.53 | 0.53 | – | O=CN(O)C(CCc1ccc(C(=O)O)cc1)CS(=O)(=O)c1ccc(Oc2ccc(OC(F)(F)F)cc2)cc1 (centres undefined)
– | > 50 | 4.1 | 7.4 | – | O=CN(O)C(CS(=O)(=O)c1ccc(Oc2ccc(OC(F)(F)F)cc2)cc1)c1ccccc1 (centres undefined)
– | – | 0.26 | 0.35 | 60 | O=CN(O)C(CO)CS(=O)(=O)c1ccc(Oc2ccc(OC(F)(F)F)cc2)cc1 (centres undefined)
5 | 8.3 | 1.1 | 20 | – | CCC1(CC)OCC([C@@H](CS(=O)(=O)c2ccc(Oc3ccc(OC(F)(F)F)cc3)cc2)N(O)C=O)O1 (some centres undefined)
– | > 50 | 12 | 9.5 | – | Cn1c(C(CS(=O)(=O)c2ccc(Oc3ccc(OC(F)(F)F)cc3)cc2)N(O)C=O)cc2ccccc21 (centres undefined)
3 | 2.5 | 0.86 | 0.39 | – | O=CN(O)C(CS(=O)(=O)c1ccc(Oc2ccc(OC(F)(F)F)cc2)cc1)CS(=O)(=O)N1CCOCC1 (centres undefined)
– | > 50 | 2 | 2.6 | 516 | O=CN(O)C(CCC(=O)N1CCOCC1)CS(=O)(=O)c1ccc(Oc2ccc(OC(F)(F)F)cc2)cc1 (centres undefined)

AUC [1] [µM·h] | IC50 (Interstitial collagenase) [µM] | IC50 [2] [nM] | IC50 [3] [nM] | half-life [4] [min] | Structure (SMILES)
– | > 50 | 37 | 62 | – | O=CN(O)C(CS(=O)(=O)c1ccc(Oc2ccc(OC(F)(F)F)cc2)cc1)c1ccc(C(F)(F)F)cc1 (centres undefined)
3 | 5.2 | 0.9 | 1.3 | 132 | CN(C)CC(CS(=O)(=O)c1ccc(Oc2ccc(OC(F)(F)F)cc2)cc1)N(O)C=O (centres undefined)
1 | > 50 | 2.2 | 1.7 | – | O=CN(O)C(CS(=O)(=O)c1ccc(Oc2ccc(OC(F)(F)F)cc2)cc1)c1ccccn1 (centres undefined)
2 | > 50 | 5.5 | 1.5 | – | CC1(C)OCC(C[C@@H](CS(=O)(=O)c2ccc(Oc3ccc(OC(F)(F)F)cc3)cc2)N(O)C=O)O1 (some centres undefined)
– | 0.078 | 0.91 | 0.35 | 30 | CC1(C)NC(=O)N(CC(CS(=O)(=O)c2ccc(-c3cccc(CC#N)c3)cc2)N(O)C=O)C1=O (centres undefined)
8 | 0.82 | 2 | 1.3 | – | CC1(C)NC(=O)N(CC(CS(=O)(=O)c2ccc(Oc3ccc(OC(F)(F)F)cc3)cc2)N(O)C=O)C1=O (centres undefined)
– | 0.036 | 4.1 | 0.34 | 66 | CC1(C)NC(=O)N(CC(CS(=O)(=O)c2ccc(-c3ccc(C#N)cc3)cc2)N(O)C=O)C1=O (centres undefined)
26 | > 50 | 0.32 | 0.61 | – | O=CN(O)C(CS(=O)(=O)c1ccc(Oc2ccc(OC(F)(F)F)cc2)cc1)C1CCCO1 (centres undefined)
– | > 50 | 2.3 | 6.3 | – | CC1(C)OC[C@@H]([C@@H](CS(=O)(=O)c2ccc(Oc3ccc(OC(F)(F)F)cc3)cc2)N(O)C=O)O1 (stereo in doubt; 19v)
– | 2 | 1.7 | 12 | – | CN(CC(CS(=O)(=O)c1ccc(Oc2ccc(OC(F)(F)F)cc2)cc1)N(O)C=O)S(C)(=O)=O (centres undefined)
1 | > 50 | – | 1.8 | 42 | CN1C(=O)N(CC(CS(=O)(=O)c2ccc(Oc3ccc(OC(F)(F)F)cc3)cc2)N(O)C=O)C(=O)C1(C)C (centres undefined)
– | 0.24 | 6.2 | 2.4 | – | CCCCOc1ccc(-c2ccc(S(=O)(=O)CC(CN3C(=O)NC(C)(C)C3=O)N(O)C=O)cc2)cc1 (centres undefined)
– | 6.7 | 9.7 | 3.6 | – | O=CN(O)C(CSc1cccs1)CS(=O)(=O)c1ccc(Oc2ccc(OC(F)(F)F)cc2)cc1 (centres undefined)
– | 0.0029 | 1.1 | 0.67 | – | CSc1ccc(-c2ccc(S(=O)(=O)CC(CN3C(=O)NC(C)(C)C3=O)N(O)C=O)cc2)cc1 (centres undefined)
– | > 50 | 0.98 | 34 | – | COC(=O)c1ccc(CCC(CS(=O)(=O)c2ccc(Oc3ccc(OC(F)(F)F)cc3)cc2)N(O)C=O)cc1 (centres undefined)
– | > 50 | 0.9 | 2.4 | – | COCC(CS(=O)(=O)c1ccc(Oc2ccc(OC(F)(F)F)cc2)cc1)N(O)C=O (centres undefined)
– | > 50 | 1.4 | 25 | – | CC1(C)OC[C@H]([C@@H](CS(=O)(=O)c2ccc(Oc3ccc(OC(F)(F)F)cc3)cc2)N(O)C=O)O1 (stereo in doubt; 19w)
4 | 6.6 | 7.2 | 0.098 | – | CN(C)S(=O)(=O)CC(CS(=O)(=O)c1ccc(Oc2ccc(OC(F)(F)F)cc2)cc1)N(O)C=O (centres undefined)
– | > 50 | 0.3 | 0.44 | – | O=CN(O)C(COCCO)CS(=O)(=O)c1ccc(Oc2ccc(OC(F)(F)F)cc2)cc1 (centres undefined)
